According to the Kinase Knowledgebase extract (Sharma et al. 2016):

molecular target: PIK3CG (human) (UniProt P48736); test: Inhibition of PIK3CG Kinase Activity
Sequence (P48736 whole entry, looked up): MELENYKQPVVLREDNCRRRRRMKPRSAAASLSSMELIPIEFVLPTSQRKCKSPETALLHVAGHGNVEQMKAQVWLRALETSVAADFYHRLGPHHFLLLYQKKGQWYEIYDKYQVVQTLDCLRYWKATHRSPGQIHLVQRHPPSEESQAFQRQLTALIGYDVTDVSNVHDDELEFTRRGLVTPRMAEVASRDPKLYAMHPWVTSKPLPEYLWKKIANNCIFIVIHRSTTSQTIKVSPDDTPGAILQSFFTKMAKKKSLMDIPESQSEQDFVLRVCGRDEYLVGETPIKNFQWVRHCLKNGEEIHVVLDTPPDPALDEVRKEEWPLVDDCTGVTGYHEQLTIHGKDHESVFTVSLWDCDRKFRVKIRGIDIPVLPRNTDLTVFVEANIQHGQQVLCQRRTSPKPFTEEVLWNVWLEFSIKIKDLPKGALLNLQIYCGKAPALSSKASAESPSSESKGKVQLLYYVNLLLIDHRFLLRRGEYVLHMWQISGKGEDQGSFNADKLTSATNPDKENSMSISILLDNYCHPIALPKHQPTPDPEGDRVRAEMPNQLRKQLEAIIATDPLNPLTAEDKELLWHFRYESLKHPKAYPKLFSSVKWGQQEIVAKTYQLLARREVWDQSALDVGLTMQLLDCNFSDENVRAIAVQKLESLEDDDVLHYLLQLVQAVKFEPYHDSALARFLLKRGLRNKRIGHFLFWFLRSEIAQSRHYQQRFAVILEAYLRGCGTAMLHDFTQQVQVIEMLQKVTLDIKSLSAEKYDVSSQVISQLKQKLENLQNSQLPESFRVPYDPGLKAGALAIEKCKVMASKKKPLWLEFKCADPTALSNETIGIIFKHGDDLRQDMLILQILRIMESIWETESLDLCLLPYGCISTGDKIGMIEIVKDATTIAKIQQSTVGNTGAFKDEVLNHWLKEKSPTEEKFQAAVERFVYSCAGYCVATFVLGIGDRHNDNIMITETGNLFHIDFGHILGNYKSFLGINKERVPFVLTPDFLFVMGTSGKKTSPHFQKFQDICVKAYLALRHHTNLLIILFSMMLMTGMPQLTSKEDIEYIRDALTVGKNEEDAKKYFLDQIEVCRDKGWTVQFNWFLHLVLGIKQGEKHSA

Row | IC50 | Structure (SMILES)
1 | < 10 µM | CC(C)(C)NS(=O)(=O)c1cccc(-c2ccc3nc(N)nn3c2)c1
2 | < 10 µM | Nc1nc2ccc(-c3ccc(F)cc3)cn2n1
3 | < 10 µM | CC(C)NS(=O)(=O)c1cncc(-c2cc(F)c3nc(N)nn3c2)c1
4 | < 10 µM | Nc1nc2ccc(-c3cncc(S(=O)(=O)Nc4cccc(OC(F)(F)C(F)F)c4)c3)cn2n1
5 | < 10 µM | Nc1nc2ccc(-c3cccc(O)c3)cn2n1
6 | < 10 µM | COc1cc(-c2ccc3nc(N)nn3c2)cc(OC)c1OC
7 | < 10 µM | CCCCNS(=O)(=O)c1cccc(-c2ccc3nc(N)nn3c2)c1
8 | < 10 µM | Nc1nc2ccc(-c3cncc(S(=O)(=O)Nc4cccc(F)c4F)c3)cn2n1
9 | < 10 µM | CN(C)CCN(C)S(=O)(=O)c1cncc(-c2ccc3nc(N)nn3c2)c1
10 | < 10 µM | COc1cc(-c2ccc3nc(N)nn3c2)ccc1O
11 | < 10 µM | Nc1nc2ccc(-c3cncc(S(=O)(=O)Nc4ccc(C(F)(F)F)cc4)c3)cn2n1
12 | < 10 µM | Nc1nc2ccc(-c3cncc(S(=O)(=O)NCc4ccc(Cl)c(Cl)c4)c3)cn2n1
13 | < 10 µM | CC(C)c1ccc(NS(=O)(=O)c2cncc(-c3ccc4nc(N)nn4c3)c2)cc1
14 | < 10 µM | Nc1nc2ccc(-c3cccc(S(=O)(=O)NCC(=O)O)c3)cn2n1
15 | < 10 µM | CC(C)(C)CS(=O)(=O)c1cncc(-c2ccc3nc(N)nn3c2)c1
16 | < 10 µM | CC(=O)Nc1cccc(-c2ccc3nc(N)nn3c2)c1
17 | < 10 µM | Nc1nc2ccc(-c3cncc(S(=O)(=O)N4CCCCCC4)c3)cn2n1
18 | < 10 µM | Nc1nc2ccc(-c3ccc4c(c3)OCO4)cn2n1
19 | < 10 µM | CC(C)(C)CNS(=O)(=O)c1cncc(-c2ccc3nc(N)nn3c2)c1
20 | < 10 µM | Nc1nc2ccc(-c3cncc(NS(=O)(=O)c4ccc(Cl)cc4)c3)cn2n1
21 | < 10 µM | COc1ccc(-c2ccc3nc(N)nn3c2)cc1OC(C)C

Row | IC50 | Structure (SMILES)
22 | < 10 µM | CS(=O)(=O)c1cccc(-c2ccc3nc(N)nn3c2)c1
23 | < 10 µM | Nc1nc2ccc(-c3cncc(S(=O)(=O)Nc4cc(C(F)(F)F)cc(C(F)(F)F)c4)c3)cn2n1
24 | < 10 µM | Nc1nc2ccc(-c3cncc(NS(=O)(=O)c4cccc(OC(F)(F)F)c4)c3)cn2n1
25 | < 10 µM | CN(Cc1ccccc1)S(=O)(=O)c1cncc(-c2ccc3nc(N)nn3c2)c1
26 | < 10 µM | Nc1nc2ccc(-c3cncc(NS(=O)(=O)c4ccccc4C(F)(F)F)c3)cn2n1
27 | < 10 µM | CNS(=O)(=O)c1cncc(-c2ccc3nc(N)nn3c2)c1
28 | < 10 µM | Nc1nc2ccc(-c3cncc(S(=O)(=O)NC4CCC(O)CC4)c3)cn2n1 (configuration not stated)
29 | < 10 µM | CC(C)(C)S(=O)(=O)c1cncc(-c2ccc3nc(N)nn3c2)c1
30 | < 10 µM | COc1ccc(-c2ccc3nc(NC(N)=O)nn3c2)cc1OC
31 | < 10 µM | CCC(CC)CNS(=O)(=O)c1cncc(-c2ccc3nc(N)nn3c2)c1
32 | < 10 µM | COc1ccc(-c2cc(C)c3nc(N)nn3c2)cc1OC
33 | < 10 µM | Cc1cccc(-c2ccc3nc(N)nn3c2)c1
34 | < 10 µM | Nc1nc2ccc(-c3cncc(S(=O)(=O)NCC(F)(F)F)c3)cn2n1
35 | < 10 µM | Nc1nc2ccc(-c3cccc(S(=O)(=O)NCCCC(=O)O)c3)cn2n1
36 | < 10 µM | Nc1nc2ccc(-c3cncc(SCc4ccccc4)c3)cn2n1
37 | < 10 µM | Nc1nc2ccc(-c3cncc(NS(=O)(=O)Cc4ccc(C(F)(F)F)cc4)c3)cn2n1
38 | < 10 µM | Nc1nc2ccc(-c3cncc(S(=O)(=O)N4CCC4)c3)cn2n1
39 | < 10 µM | COc1ccccc1NS(=O)(=O)c1cncc(-c2ccc3nc(N)nn3c2)c1
40 | < 10 µM | Nc1nc2ccc(-c3cncc(Oc4ccccc4)c3)cn2n1
41 | < 10 µM | Nc1nc2ccc(-c3cncc(NS(=O)(=O)Cc4ccc(Cl)cc4)c3)cn2n1
42 | < 10 µM | Nc1nc2ccc(-c3cncc(NS(=O)(=O)c4cccc(C(F)(F)F)c4)c3)cn2n1

Row | IC50 | Structure (SMILES)
43 | < 10 µM | Nc1nc2ccc(-c3cncc(S(=O)(=O)N4CCCC4)c3)cn2n1
44 | < 10 µM | CC(C)(C)NS(=O)(=O)c1cncc(-c2cc(F)c3nc(N)nn3c2)c1
45 | < 10 µM | CC(C)CNS(=O)(=O)c1cncc(-c2ccc3nc(N)nn3c2)c1
46 | < 10 µM | Nc1nc2ccc(-c3cncc(S(=O)(=O)N4CCCCC4)c3)cn2n1
47 | < 10 µM | CCNc1cccc(-c2ccc3nc(N)nn3c2)c1
48 | < 10 µM | CCCNS(=O)(=O)c1cncc(-c2cc(F)c3nc(N)nn3c2)c1
49 | < 10 µM | Nc1nc2ccc(-c3cncc(S(=O)(=O)NCC4CCCCCC4)c3)cn2n1
50 | < 10 µM | Nc1nc2ccc(-c3cncc(NS(=O)(=O)c4cc(C(F)(F)F)cc(C(F)(F)F)c4)c3)cn2n1
51 | < 10 µM | COc1ccc(-c2ccc3nc(N)nn3c2)cc1
52 | < 10 µM | COc1ccc(-c2cc(F)c3nc(N)nn3c2)cc1OC
53 | < 10 µM | Cn1cc(-c2ccc3nc(N)nn3c2)cn1
54 | < 10 µM | Nc1nc2ccc(-c3cncc(S(=O)(=O)Nc4ccc(Cl)cc4)c3)cn2n1
55 | < 10 µM | Nc1nc2ccc(-c3cncc(S(=O)(=O)N(Cc4ccccc4F)C4CC4)c3)cn2n1
56 | < 10 µM | Nc1nc2ccc(-c3cncc(S(=O)(=O)NC4CCOCC4)c3)cn2n1
57 | < 10 µM | CC(C)(CN1CCCC1)NS(=O)(=O)c1cncc(-c2ccc3nc(N)nn3c2)c1
58 | < 10 µM | Nc1nc2ccc(-c3cncc(S(=O)(=O)Nc4ccc(F)cc4F)c3)cn2n1
59 | < 10 µM | Nc1nc2ccc(-c3cncc(S(=O)(=O)N4CCOCC4)c3)cn2n1
60 | < 10 µM | Nc1nc2ccc(-c3ccc4c(c3)OCCO4)cn2n1
61 | < 10 µM | CC(C)(NS(=O)(=O)c1cncc(-c2ccc3nc(N)nn3c2)c1)C(F)(F)F
62 | < 10 µM | CCCCN(Cc1ccccc1)S(=O)(=O)c1cncc(-c2ccc3nc(N)nn3c2)c1
63 | < 10 µM | Nc1nc2ccc(-c3cncc(S(=O)(=O)NC4CC4)c3)cn2n1

Row | IC50 | Structure (SMILES)
64 | < 10 µM | Nc1nc2ccc(-c3cncc(S(=O)(=O)NCC4CC4)c3)cn2n1
65 | < 10 µM | Cc1nc(C)c(CNS(=O)(=O)c2cncc(-c3ccc4nc(N)nn4c3)c2)o1
66 | < 10 µM | Nc1nc2ccc(-c3cncc(S(N)(=O)=O)c3)cn2n1
67 | < 10 µM | Nc1nc2ccc(-c3cncc(S(=O)(=O)Nc4ccc(OC(F)F)cc4)c3)cn2n1
68 | < 10 µM | Nc1nc2ccc(-c3cncc(S(=O)(=O)N4CCC(F)(F)CC4)c3)cn2n1
69 | < 10 µM | CC(C)(C)NC(=O)c1cncc(-c2ccc3nc(N)nn3c2)c1
70 | < 10 µM | Nc1nc2ccc(-c3cncc(S(=O)(=O)Nc4ccc(F)c(F)c4)c3)cn2n1
71 | < 10 µM | Nc1nc2ccc(-c3cncc(S(=O)(=O)NCCC(F)(F)F)c3)cn2n1
72 | < 10 µM | CNS(=O)(=O)c1cncc(-c2cc(F)c3nc(N)nn3c2)c1
73 | < 10 µM | Nc1nc2ccc(-c3cncc(S(=O)(=O)Nc4cccc(OC(F)F)c4)c3)cn2n1
74 | < 10 µM | Nc1nc2ccc(-c3cncc(C(F)(F)F)c3)cn2n1
75 | < 10 µM | Nc1nc2ccc(-c3cc[nH]n3)cn2n1
76 | < 10 µM | CCN(C)S(=O)(=O)c1cncc(-c2ccc3nc(N)nn3c2)c1
77 | < 10 µM | Nc1nc2ccc(-c3cncc(Cl)c3)cn2n1
78 | < 10 µM | Nc1nc2ccc(-c3ccc(F)c(F)c3)cn2n1
79 | < 10 µM | Nc1nc2ccc(-c3cncc(S(=O)(=O)NCC4CCOCC4)c3)cn2n1
80 | < 10 µM | N#Cc1cccc(-c2ccc3nc(N)nn3c2)c1
81 | < 10 µM | CC(C)NS(=O)(=O)c1cncc(-c2ccc3nc(N)nn3c2)c1
82 | < 10 µM | CN(C)CCNS(=O)(=O)c1cccc(-c2ccc3nc(N)nn3c2)c1
